These results are taken from patent US11053250B2, “Pyrrolo[1,2-b]pyridazine derivatives” (Gilead Sciences, Inc., priority 2018, dated 2021).

The subject of one experiment is TNFα. Kind of experiment: IRAK4 Monocyte TNFα Cell Based Assay. The conditions noted are these: cryopreserved human monocytes, LPS 50 pg/ml stimulation, TNFα by TR-FRET. Here is the method:
The cell suspension was then plated at a density of 5,000 cells/well onto black 384 well Greiner clear bottom plates. Plates were pre-spotted with test compounds and serially diluted in DMSO where 40 nL/well were delivered using the Echo 550 acoustic liquid dispenser (Labcyte®) for a final DMSO concentration of 0.1%. Plated cells were treated with compound for 1 hour at 37° C. Cells were then stimulated with 50 pg/ml of LPS (Sigma) excluding outside columns of plate used for unstimulated cell control wells. Cells were incubated for an additional 4 hours at 37° C. Cells were then spun out of the media and 5 μl of sample were taken and analyzed for total TNFα content using the TR-FRET Human TNFα detection system (CisBio). This system utilizes two labeled antibodies (cryptate and XL665) that bind to two different epitopes of the TNFα molecule and produce FRET signal proportional to the concentration of TNFα in the sample. Detection antibodies are mixed 50:50 and 5 μL were dispensed into each well. Plates were covered with clear seals and incubated at room temp overnight. The following morning plates were read using an Envision 2103 Multilabeled reader (PerkinElmer) with excitation/emission/FRET emission at 340 nm/615 nm/665 nm, respectively. Fluorescence intensities at 615 nm and 665 nm emission wavelengths were expressed as a ratio (665 nm/615 nm). Percent of control was calculated as follows: % Control=100×(RatioSample−Ratio0% stimulation)/(Ratio100% Stimulation−Ratio0% stimulation) where unstimulated cells (0% stimulation) were the negative control and stimulated cells (100% stimulation) were used as the positive control.
In general terms: TR-FRET usually uses a lanthanide donor and a delayed reading to cut background.

In the next experiment the target is IRAK4 enzyme (Homo sapiens (Human), UniProt Q9NWZ3). The experiment is described as follows: IRAK4 Biochemical Assay (TR-FRET/HTRF). The conditions noted are these: 0.75 nM IRAK4, 500 μM ATP, STK1 peptide. As for the experimental part:
IRAK4 enzyme (Carna Biosciences, Chuo-ku, Kobe, Japan) activity was measured by detecting phosphorylated peptide substrate formation using an antibody against the phosphorylated peptide substrate. This is a time-resolved fluorescence resonance energy transfer (TR-FRET) immunoassay, based on the STK1 KinEASE Assay (Cisbio, Bedford, Mass.). The assay was designed as a simple two-step, endpoint assay (a 5 μl enzyme reaction followed by 5 μl stop and detect Solution) performed in ProxiPlate-384 Plus plates (Perkin Elmer, Waltham, Mass.). Staurosporine, a non-selective kinase inhibitor was used as a positive control. Compounds diluted in DMSO were spotted into 384 well plates using a Labcyte® Echo 550 Liquid Handling System prior to addition of IRAK4 enzyme and peptide substrate. Reaction solutions were delivered using a Multi-Flo (Bio-Tek Instruments). The enzyme and peptide solution was incubated with compound for 15 minutes at room temp before the reaction was initiated by the addition of ATP. The standard 5 μl reaction mixture contained 500 μM ATP, 2 μM peptide (STK1 Peptide), 0.75 nM of IRAK4 in reaction buffer (50 mM HEPES, pH 7.0, 0.02% NaN3, 0.01% BSA, 0.1 mM Orthovanadate, 5 mM MgCl2, 0.025% NP-40, 1 mM DTT). After 120 min of incubation at room temperature, 5 μl of Stop and Detect Solution (1:100 Cryptate labeled anti-phosphorylated peptide antibody solution and 125 nM Tracer in a 50 mM HEPES pH 7.0 detection buffer containing sufficient EDTA) was added. The plate was then further incubated for 60 minutes at room temperature and read on Envision 2103 Multilabeled reader (PerkinElmer) with excitation/emission/FRET emission at 340 nm/615 nm/665 nm, respectively. Fluorescence intensities at 615 nm and 665 nm emission wavelengths were expressed as a ratio (665 nm/615 nm). Percentage of inhibition was calculated as below: % Inhibition=100×(RatioSample−Ratio0% Inhibition)/(Ratio100% Inhibition−Ratio0% Inhibition)
The 0% inhibition value comes from control wells lacking inhibitor. The 100% inhibition value comes from control wells containing a saturating amount of known inhibitor staurosporine.

Chain of IRAK4 enzyme (Q9NWZ3 whole entry): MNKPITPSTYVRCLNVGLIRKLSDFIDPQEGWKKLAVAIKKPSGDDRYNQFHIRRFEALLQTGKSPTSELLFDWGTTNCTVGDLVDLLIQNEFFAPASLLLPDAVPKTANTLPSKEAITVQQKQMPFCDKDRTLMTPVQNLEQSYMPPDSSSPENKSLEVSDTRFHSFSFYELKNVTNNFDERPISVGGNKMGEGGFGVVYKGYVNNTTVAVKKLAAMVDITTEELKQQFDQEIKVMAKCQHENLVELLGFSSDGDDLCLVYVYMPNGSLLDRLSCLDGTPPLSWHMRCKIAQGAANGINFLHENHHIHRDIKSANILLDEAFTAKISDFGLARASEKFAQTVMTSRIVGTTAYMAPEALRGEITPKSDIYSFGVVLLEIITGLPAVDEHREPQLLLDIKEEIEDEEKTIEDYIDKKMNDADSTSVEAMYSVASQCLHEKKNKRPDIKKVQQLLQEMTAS

Regarding “7-(4-(isopropylamino)-5-(1-propyl-1H-1,2,3-triazol-4-yl)pyridin-2-yl)pyrrolo[1,2-b]pyridazine-3-carbonitrile [Compound 54]”, in the experiment with TNFα, the EC50 came out at 90 nM. At IRAK4 enzyme, this compound came in with an IC50 of 1 nM.
For the compound `C[C@H](C#N)Nc1cc(-c2ccc3cc(C#N)cnn23)ncc1-c1cn(C[C@@H](F)C(C)(C)O)nn1` [Compound 1, 7-(4-(((R)-1-cyanoethyl)amino)-5-(1-((R)-2-fluoro-3-hydroxy-3-methylbutyl)-1H-1,2,3-triazol-4-yl)pyridin-2-yl)pyrrolo[1,2-b]pyridazine-3-carbonitrile], the response in the experiment with TNFα (Monocyte) was half-maximal at 12 nM (EC50). At IRAK4 enzyme, the IC50 is below 1 nM.
For the compound `CC(C)(O)[C@H](F)Cn1cc(-c2cnc(-c3ccc4cc(C#N)cnn34)cc2NCC#N)nn1` [Compound 2, (R)-7-(4-((cyanomethyl)amino)-5-(1-(2-fluoro-3-hydroxy-3-methylbutyl)-1H-1,2,3-triazol-4-yl)pyridin-2-yl)pyrrolo[1,2-b]pyridazine-3-carbonitrile], the EC50 in the experiment with TNFα (Monocyte) is 15 nM. The compound further yielded an IC50 against IRAK4 enzyme of 1 nM.
`CC(C)(O)[C@H](F)Cn1cc(-c2cnc(-c3ccc4cc(C#N)cnn34)cc2N[C@H]2CC[C@H](c3nnc(C(F)F)o3)CC2)nn1` [Compound 3, 7-(4-(((1r,4R)-4-(5-(difluoromethyl)-1,3,4-oxadiazol-2-yl)cyclohexyl)amino)-5-(1-((R)-2-fluoro-3-hydroxy-3-methylbutyl)-1H-1,2,3-triazol-4-yl)pyridin-2-yl)pyrrolo[1,2-b]pyridazine-3-carbonitrile] yielded a concentration for a half-maximal effect (EC50) in the experiment on TNFα of 20 nM. The IC50 at IRAK4 enzyme came to 2 nM.
On to `COC(=O)NC[C@H]1C[C@H](Nc2cc(-c3ccc4cc(C#N)cnn34)ncc2-c2cn(C(F)F)nn2)C1` [Compound 4, methyl (((1r,3r)-3-((2-(3-cyanopyrrolo[1,2-b]pyridazin-7-yl)-5-(1-(difluoromethyl)-1H-1,2,3-triazol-4-yl)pyridin-4-yl)amino)cyclobutyl)methyl)carbamate], for which the EC50 in the experiment on TNFα was determined as 130 nM. The compound also had an IC50 against IRAK4 enzyme of 2 nM.
Take `COC(=O)NC[C@H]1C[C@H](Nc2cc(-c3ccc4cc(C#N)cnn34)ncc2-c2nnn(C[C@@H](F)C(C)(C)O)c2F)C1` [Compound 5, methyl (((1R,3r)-3-((2-(3-cyanopyrrolo[1,2-b]pyridazin-7-yl)-5-(5-fluoro-1-((R)-2-fluoro-3-hydroxy-3-methylbutyl)-1H-1,2,3-triazol-4-yl)pyridin-4-yl)amino)cyclobutyl)methyl)carbamate]: in the experiment with TNFα, the concentration for a half-maximal effect (EC50) is 145 nM. On IRAK4 enzyme, this compound returned an IC50 of 3 nM.
In the experiment with TNFα, `COC(=O)NCC1CC(Nc2cc(-c3ccc4cc(C#N)cnn34)ncc2-c2cn(CC3CC(O)C3)nn2)C1` [Compound 6, methyl (((1R,3r)-3-((2-(3-cyanopyrrolo[1,2-b]pyridazin-7-yl)-5-(1-(((1r,3R)-3-hydroxycyclobutyl)methyl)-1H-1,2,3-triazol-4-yl)pyridin-4-yl)amino)cyclobutyl)methyl)carbamate] had an EC50 of 19 nM. Further, the IC50 at IRAK4 enzyme was below 1 nM.
For `COC(=O)NCC1CC(Nc2cc(-c3ccc4cc(C#N)cnn34)ncc2-c2cn(C3CC(O)C3)nn2)C1` [Compound 7, methyl (((1R,3r)-3-((2-(3-cyanopyrrolo[1,2-b]pyridazin-7-yl)-5-(1-((1r,3R)-3-hydroxycyclobutyl)-1H-1,2,3-triazol-4-yl)pyridin-4-yl)amino)cyclobutyl)methyl)carbamate], in that order: 12 nM and below 1 nM.
With `COC(=O)NCC1CC(Nc2cc(-c3ccc4cc(C#N)cnn34)ncc2-c2cn(CC3CC(O)C3)nn2)C1` [Compound 8, methyl (((1R,3r)-3-((2-(3-cyanopyrrolo[1,2-b]pyridazin-7-yl)-5-(1-(((1s,3S)-3-hydroxycyclobutyl)methyl)-1H-1,2,3-triazol-4-yl)pyridin-4-yl)amino)cyclobutyl)methyl)carbamate], in the experiment on TNFα, the EC50 was 17 nM. Besides, the IC50 at IRAK4 enzyme was below 1 nM.
For `COC(=O)NCC1CC(Nc2cc(-c3ccc4cc(C#N)cnn34)ncc2-c2cn(C3CC(CO)C3)nn2)C1` [Compound 9, methyl (((1R,3r)-3-((2-(3-cyanopyrrolo[1,2-b]pyridazin-7-yl)-5-(1-((1r,3R)-3-(hydroxymethyl)cyclobutyl)-1H-1,2,3-triazol-4-yl)pyridin-4-yl)amino)cyclobutyl)methyl)carbamate], in the experiment with TNFα, it took 16 nM to reach a half-maximal effect (EC50). Besides, the IC50 on IRAK4 enzyme is below 1 nM.
On to `COC(=O)NCC1CC(Nc2cc(-c3ccc4cc(C#N)cnn34)ncc2-c2cn(C3CC(CNC(=O)OC)C3)nn2)C1` [Compound 10, methyl (((1R,3r)-3-((2-(3-cyanopyrrolo[1,2-b]pyridazin-7-yl)-5-(1-((1r,3R)-3-(((methoxycarbonyl)amino)methyl)cyclobutyl)-1H-1,2,3-triazol-4-yl)pyridin-4-yl)amino)cyclobutyl)methyl)carbamate], for which the EC50 in the experiment on TNFα came to 20 nM. This compound also registered an IC50 against IRAK4 enzyme of 1 nM.
On to `CC(C)(O)CCn1cc(-c2cnc(-c3ccc4cc(C#N)cnn34)cc2NC2COC2)nn1` [Compound 11, 7-(5-(1-(3-hydroxy-3-methylbutyl)-1H-1,2,3-triazol-4-yl)-4-(oxetan-3-ylamino)pyridin-2-yl)pyrrolo[1,2-b]pyridazine-3-carbonitrile], for which, in the experiment on TNFα (Monocyte), the EC50 is 28 nM. That is a double-digit nanomolar value.
`Cn1cc(-c2cnc(-c3ccc4cc(C#N)cnn34)cc2N[C@H]2CCC[C@@H](O)C2)nn1` [Compound 12, 7-(4-(((1S,3R)-3-hydroxycyclohexyl)amino)-5-(1-methyl-1H-1,2,3-triazol-4-yl)pyridin-2-yl)pyrrolo[1,2-b]pyridazine-3-carbonitrile]: the EC50 in the experiment with TNFα (Monocyte) was found to be 30 nM. Moreover, the IC50 against IRAK4 enzyme was found to be 1 nM.
`CC(C)(O)[C@H](F)Cn1cc(-c2cnc(-c3ccc4cc(C#N)cnn34)cc2N[C@H]2CCC[C@@H](O)C2)nn1` [Compound 13, 7-(5-(1-((R)-2-fluoro-3-hydroxy-3-methylbutyl)-1H-1,2,3-triazol-4-yl)-4-(((1S,3R)-3-hydroxycyclohexyl)amino)pyridin-2-yl)pyrrolo[1,2-b]pyridazine-3-carbonitrile]: the EC50 in the experiment on TNFα (Monocyte) came out at 5 nM. At IRAK4 enzyme, this compound had an IC50 below 1 nM.
In the experiment with TNFα (Monocyte), `COC(=O)NC[C@H]1C[C@H](Nc2cc(-c3ccc4cc(C#N)cnn34)ncc2-c2cn([C@H]3CC[C@H](NC(=O)N4CCOCC4)CC3)nn2)C1` [Compound 17, methyl (((1R,3r)-3-((2-(3-cyanopyrrolo[1,2-b]pyridazin-7-yl)-5-(1-((1r,4R)-4-(morpholine-4-carboxamido)cyclohexyl)-1H-1,2,3-triazol-4-yl)pyridin-4-yl)amino)cyclobutyl)methyl)carbamate] had an EC50 of 5 nM. This lies in the single-digit nanomolar range.
Compound `CNc1cc(-c2ccc3cc(C#N)cnn23)ncc1-c1cn([C@H]2CC[C@H](NC(=O)OC(C)(C)C)CC2)nn1` [Compound 23, tert-butyl ((1r,4r)-4-(4-(6-(3-cyanopyrrolo[1,2-b]pyridazin-7-yl)-4-(methylamino)pyridin-3-yl)-1H-1,2,3-triazol-1-yl)cyclohexyl)carbamate] yielded an IC50 at IRAK4 enzyme of 16 nM.
As to `CC(C)Nc1cc(-c2ccc3cc(C#N)cnn23)ncc1-n1cc(CCC(C)(C)O)nn1` [Compound 62, 7-(5-(4-(3-hydroxy-3-methylbutyl)-1H-1,2,3-triazol-1-yl)-4-(isopropylamino)pyridin-2-yl)pyrrolo[1,2-b]pyridazine-3-carbonitrile], the EC50 with TNFα (Monocyte) came out at 31 nM.
Compound `CC(=O)N1CCC(c2cn(-c3cnc(-c4ccc5cc(C#N)cnn45)cc3NC(C)C)nn2)CC1` [Compound 63, 7-(5-(4-(1-acetylpiperidin-4-yl)-1H-1,2,3-triazol-1-yl)-4-(isopropylamino)pyridin-2-yl)pyrrolo[1,2-b]pyridazine-3-carbonitrile] displayed an EC50 in the experiment on TNFα (Monocyte) of 148 nM. Compared with the last compound, the EC50 is about 4.8-fold higher.

By EC50 is commonly meant the concentration giving half of the maximal effect. Lower therefore signals a more potent agent. Usually IC50 stands for the midpoint of a concentration-inhibition curve. A higher IC50 goes with lower potency.
